# Test results published in ChEMBL document CHEMBL1155542, “Mapping the ATP-binding domain of DNA-dependent protein kinase (DNA-PK) with coumarin- and isocoumarin-derived inhibitors” (Bioorg Med Chem Lett, 2010).
# Target: DNA-dependent protein kinase catalytic subunit (Homo sapiens, UniProt P78527)
# Assay: Inhibition of DNA-dependent protein kinase
# DNA-dependent protein kinase catalytic subunit, sequence (P78527 whole entry): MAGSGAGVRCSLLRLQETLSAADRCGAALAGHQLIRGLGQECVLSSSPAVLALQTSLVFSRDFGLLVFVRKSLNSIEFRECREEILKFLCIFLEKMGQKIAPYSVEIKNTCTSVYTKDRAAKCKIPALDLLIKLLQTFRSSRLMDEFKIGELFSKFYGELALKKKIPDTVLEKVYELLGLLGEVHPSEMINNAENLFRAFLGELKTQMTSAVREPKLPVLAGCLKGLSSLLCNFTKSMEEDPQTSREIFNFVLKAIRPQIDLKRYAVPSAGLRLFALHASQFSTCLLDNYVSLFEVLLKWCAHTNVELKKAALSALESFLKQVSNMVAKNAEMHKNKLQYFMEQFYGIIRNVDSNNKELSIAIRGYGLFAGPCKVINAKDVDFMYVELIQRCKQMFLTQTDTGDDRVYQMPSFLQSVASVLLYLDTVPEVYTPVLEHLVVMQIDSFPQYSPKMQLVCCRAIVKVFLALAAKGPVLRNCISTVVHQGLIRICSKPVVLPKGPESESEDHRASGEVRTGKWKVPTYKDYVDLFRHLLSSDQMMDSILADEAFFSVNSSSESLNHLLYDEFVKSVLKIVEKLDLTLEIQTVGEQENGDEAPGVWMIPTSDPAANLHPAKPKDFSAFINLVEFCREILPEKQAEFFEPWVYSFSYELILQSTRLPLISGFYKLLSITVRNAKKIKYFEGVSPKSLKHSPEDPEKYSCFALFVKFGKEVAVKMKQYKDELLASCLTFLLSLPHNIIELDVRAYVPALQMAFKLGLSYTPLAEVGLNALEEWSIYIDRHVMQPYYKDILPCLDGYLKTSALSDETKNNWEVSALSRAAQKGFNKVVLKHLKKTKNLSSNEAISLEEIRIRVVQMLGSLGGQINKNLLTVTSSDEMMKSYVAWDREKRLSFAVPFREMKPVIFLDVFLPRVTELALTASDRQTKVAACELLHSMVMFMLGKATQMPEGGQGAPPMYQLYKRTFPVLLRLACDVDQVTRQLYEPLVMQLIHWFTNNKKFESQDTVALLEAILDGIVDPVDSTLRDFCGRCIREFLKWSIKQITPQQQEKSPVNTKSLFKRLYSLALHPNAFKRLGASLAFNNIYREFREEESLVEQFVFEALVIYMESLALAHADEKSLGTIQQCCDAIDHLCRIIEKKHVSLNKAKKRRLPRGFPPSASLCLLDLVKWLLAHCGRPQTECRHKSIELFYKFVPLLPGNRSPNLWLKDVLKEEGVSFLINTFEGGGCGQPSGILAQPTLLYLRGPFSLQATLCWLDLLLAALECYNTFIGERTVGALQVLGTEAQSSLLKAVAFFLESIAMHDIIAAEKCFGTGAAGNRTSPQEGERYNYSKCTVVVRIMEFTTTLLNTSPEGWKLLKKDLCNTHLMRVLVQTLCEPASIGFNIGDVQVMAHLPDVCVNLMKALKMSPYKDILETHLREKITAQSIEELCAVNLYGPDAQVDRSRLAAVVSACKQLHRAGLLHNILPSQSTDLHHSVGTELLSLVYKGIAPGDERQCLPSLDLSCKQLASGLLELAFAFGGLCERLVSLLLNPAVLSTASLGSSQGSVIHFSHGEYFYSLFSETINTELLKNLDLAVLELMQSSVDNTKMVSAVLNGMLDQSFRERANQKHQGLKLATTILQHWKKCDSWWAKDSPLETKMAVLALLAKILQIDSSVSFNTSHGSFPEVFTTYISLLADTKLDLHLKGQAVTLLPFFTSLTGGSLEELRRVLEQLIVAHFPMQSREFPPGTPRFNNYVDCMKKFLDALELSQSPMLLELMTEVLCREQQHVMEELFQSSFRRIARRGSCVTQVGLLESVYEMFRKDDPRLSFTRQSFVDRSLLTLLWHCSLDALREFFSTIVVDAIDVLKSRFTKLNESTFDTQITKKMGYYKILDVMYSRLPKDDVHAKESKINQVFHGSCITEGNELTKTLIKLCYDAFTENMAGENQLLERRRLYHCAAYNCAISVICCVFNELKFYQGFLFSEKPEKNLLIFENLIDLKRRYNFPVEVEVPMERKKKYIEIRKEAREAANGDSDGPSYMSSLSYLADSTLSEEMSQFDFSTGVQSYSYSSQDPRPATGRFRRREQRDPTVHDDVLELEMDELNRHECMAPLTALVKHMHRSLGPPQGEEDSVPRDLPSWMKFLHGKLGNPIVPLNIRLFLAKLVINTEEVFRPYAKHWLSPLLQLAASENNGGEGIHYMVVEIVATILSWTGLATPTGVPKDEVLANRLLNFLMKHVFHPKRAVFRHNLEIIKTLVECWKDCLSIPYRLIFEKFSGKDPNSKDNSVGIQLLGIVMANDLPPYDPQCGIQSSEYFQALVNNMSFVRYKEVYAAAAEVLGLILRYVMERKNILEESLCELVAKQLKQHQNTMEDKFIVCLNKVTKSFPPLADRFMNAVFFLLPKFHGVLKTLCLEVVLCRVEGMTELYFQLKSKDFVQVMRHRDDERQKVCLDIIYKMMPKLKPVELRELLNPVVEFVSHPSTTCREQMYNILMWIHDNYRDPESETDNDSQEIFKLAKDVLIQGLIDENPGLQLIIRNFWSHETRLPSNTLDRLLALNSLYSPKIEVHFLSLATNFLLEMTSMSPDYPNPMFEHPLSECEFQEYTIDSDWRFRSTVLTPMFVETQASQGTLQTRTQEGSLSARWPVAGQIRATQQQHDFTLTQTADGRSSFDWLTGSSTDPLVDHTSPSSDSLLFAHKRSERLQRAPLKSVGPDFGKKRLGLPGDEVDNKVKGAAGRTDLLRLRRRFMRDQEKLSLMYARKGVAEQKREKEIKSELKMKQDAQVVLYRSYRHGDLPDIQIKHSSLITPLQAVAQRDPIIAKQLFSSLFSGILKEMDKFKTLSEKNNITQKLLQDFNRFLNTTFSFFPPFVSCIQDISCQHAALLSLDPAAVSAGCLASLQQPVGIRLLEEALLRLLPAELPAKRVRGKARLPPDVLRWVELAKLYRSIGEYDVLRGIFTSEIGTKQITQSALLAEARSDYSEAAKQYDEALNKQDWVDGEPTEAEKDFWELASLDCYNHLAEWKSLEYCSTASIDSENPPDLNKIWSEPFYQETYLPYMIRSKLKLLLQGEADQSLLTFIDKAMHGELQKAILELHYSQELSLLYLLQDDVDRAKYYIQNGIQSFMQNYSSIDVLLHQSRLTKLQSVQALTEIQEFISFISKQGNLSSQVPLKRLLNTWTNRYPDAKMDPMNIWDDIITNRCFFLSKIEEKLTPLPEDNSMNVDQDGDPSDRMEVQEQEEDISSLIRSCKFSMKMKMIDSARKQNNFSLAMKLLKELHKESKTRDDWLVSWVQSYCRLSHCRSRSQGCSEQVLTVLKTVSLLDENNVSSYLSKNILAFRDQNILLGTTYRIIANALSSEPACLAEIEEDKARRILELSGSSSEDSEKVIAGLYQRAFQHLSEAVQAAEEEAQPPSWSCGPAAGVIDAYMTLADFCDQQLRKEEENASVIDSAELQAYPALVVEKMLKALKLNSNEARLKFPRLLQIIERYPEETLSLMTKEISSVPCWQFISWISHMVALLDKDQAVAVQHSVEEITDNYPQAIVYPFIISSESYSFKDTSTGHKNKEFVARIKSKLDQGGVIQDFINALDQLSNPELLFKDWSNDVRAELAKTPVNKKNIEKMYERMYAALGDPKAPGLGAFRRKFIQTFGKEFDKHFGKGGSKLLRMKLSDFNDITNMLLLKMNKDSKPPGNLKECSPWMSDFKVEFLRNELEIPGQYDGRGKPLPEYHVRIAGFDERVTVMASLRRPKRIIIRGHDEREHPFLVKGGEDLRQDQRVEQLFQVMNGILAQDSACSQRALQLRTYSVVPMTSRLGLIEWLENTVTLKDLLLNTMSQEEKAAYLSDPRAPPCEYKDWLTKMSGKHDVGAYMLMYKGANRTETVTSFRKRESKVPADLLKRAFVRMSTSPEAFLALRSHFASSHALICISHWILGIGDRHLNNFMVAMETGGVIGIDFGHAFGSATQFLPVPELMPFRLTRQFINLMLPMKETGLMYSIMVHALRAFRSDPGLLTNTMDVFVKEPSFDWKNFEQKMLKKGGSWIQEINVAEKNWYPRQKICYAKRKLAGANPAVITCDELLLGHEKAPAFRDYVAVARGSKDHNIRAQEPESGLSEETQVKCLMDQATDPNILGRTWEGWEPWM
row,SMILES,IC50 [nM]
1,O=c1cc(N2CCOCC2)c2cc(-c3cccc(-c4ccccc4)c3)ccc2o1,1600
2,COc1cccc2c(=O)oc(N3CCOCC3)cc12,3200
3,O=c1cc(N2CCOCC2)c2ccc(-c3ccccc3)cc2o1,1700
4,O=c1cc(N2CCOCC2)c2cc(-c3cccs3)ccc2o1,1200
5,O=c1cc(N2CCOCC2)oc2ccccc12,> 10000
6,COc1ccc2c(N3CCOCC3)cc(=O)oc2c1,5400
7,O=c1cc(N2CCOCC2)c2ccc(-c3cccs3)cc2o1,600
8,O=c1cc(N2CCOCC2)c2ccc(-c3cccc(-c4ccccc4)c3)cc2o1,> 10000
9,COc1ccc2oc(=O)cc(N3CCOCC3)c2c1,1700
10,O=c1cc(N2CCOCC2)c2cc(-c3ccccc3)ccc2o1,1800
11,O=c1cc(N2CCOCC2)c2cc(-c3cc4ccccc4s3)ccc2o1,> 10000
12,O=c1cc(N2CCOCC2)c2ccc(-c3cc4ccccc4s3)cc2o1,> 10000
13,COc1cccc2c(=O)cc(N3CCOCC3)oc12,1800

# Other lines, results leading:
row,IC50 [nM],SMILES
1,> 10000,O=c1oc(N2CCOCC2)cc2ccccc12
2,> 10000,O=c1cc(N2CCOCC2)c2cc(-c3cccc4c3sc3ccccc34)ccc2o1
3,340,O=c1oc(N2CCOCC2)cc2c(-c3cccc4c3sc3ccccc34)cccc12
4,330,O=c1oc(N2CCOCC2)cc2c(-c3cccc4c3oc3ccccc34)cccc12
5,680,O=c1oc(N2CCOCC2)cc2c(-c3cccc(-c4ccccc4)c3)cccc12
6,30,O=c1cc(N2CCOCC2)oc2c(-c3cccc4c3sc3ccccc34)cccc12
7,5,CCN1CCN(CC(=O)Nc2ccc(-c3cccc4c(=O)cc(N5CCOCC5)oc34)c3sc4ccccc4c23)CC1
8,2600,O=c1oc(N2CCOCC2)cc2c(-c3ccccc3)cccc12
9,2100,O=c1cc(N2CCOCC2)c2ccc(-c3cccc4c3oc3ccccc34)cc2o1
10,> 10000,O=c1cc(N2CCOCC2)c2cc(-c3cccc4c3oc3ccccc34)ccc2o1
11,2100,O=c1cc(N2CCOCC2)c2ccc(-c3cccc4c3sc3ccccc34)cc2o1
